Measured values published in ChEMBL document CHEMBL4393706, “Ursolic acid derivative induces apoptosis in glioma cells through down-regulation of cAMP” (2019).
Active and inactive are the calls of the source. The calls are words filed in the database; no cut-off is given here.

How the values were obtained:
U-251 [1] = test: Induction of apoptosis in human U251 cells assessed as increase in apoptotic cells at 2 uM measured after 48 hrs by annexin V/FITC-propidium iodide staining-based flow cytometric method; type: functional, cell-based
U-251 [2] = test: Induction of apoptosis in human U251 cells assessed as apoptotic cells at 10 uM measured after 48 hrs by annexin V/FITC-propidium iodide staining-based flow cytometric method relative to control; type: functional
U-251 [3] = test: Induction of apoptosis in human U251 cells assessed as apoptotic cells at 8 uM measured after 48 hrs by annexin V/FITC-propidium iodide staining-based flow cytometric method relative to control; type: functional
U-251 [4] = test: Induction of apoptosis in human U251 cells assessed as apoptotic cells at 6 uM measured after 48 hrs by annexin V/FITC-propidium iodide staining-based flow cytometric method relative to control; type: functional
U-251 [5] = test: Induction of apoptosis in human U251 cells assessed as apoptotic cells at 4 uM measured after 48 hrs by annexin V/FITC-propidium iodide staining-based flow cytometric method ( Rvb = 2.34%); type: functional
U-251 [6] = test: Induction of morphological changes in human U251 cells assessed as inhibtion of microvilli at 6 to 10 uM measured after 48 hrs by scanning electron microscopy; type: functional, cell-based
U-251 [7] = test: Induction of morphological changes in human U251 cells assessed as inhibtion of cell surface extension at 6 to 10 uM measured after 48 hrs by scanning electron microscopy; type: functional, cell-based
U-251 [8] = test: Cytotoxicity against human U251 cells at 5 uM measured after 48 hrs by MTT assay; type: functional, cell-based
U-251 [9] = test: Antiproliferative activity against human U251 cells measured after 48 hrs by MTT assay; type: functional, cell-based
C6 [10] = test: Antiproliferative activity against rat C6 cells measured after 48 hrs by MTT assay; type: functional, cell-based
U-251 [11] = test: Antiproliferative activity against human U251 cells assessed as cell proliferation at 2 uM measured after 48 hrs relative to control; type: functional; conditions: U-251, 48 h, read-out: Activity
U-251 [12] = test: Antiproliferative activity against human U251 cells assessed as cell proliferation at 4 uM measured after 48 hrs relative to control; type: functional; conditions: U-251, 48 h, read-out: Activity
U-251 [13] = test: Antiproliferative activity against human U251 cells assessed as cell proliferation at 6 uM measured after 48 hrs relative to control; type: functional; conditions: U-251, 48 h, read-out: Activity
U-251 [14] = test: Antiproliferative activity against human U251 cells assessed as cell proliferation at 8 uM measured after 48 hrs relative to control; type: functional; conditions: U-251, 48 h, read-out: Activity
U-251 [15] = test: Antiproliferative activity against human U251 cells assessed as cell proliferation at 10 uM measured after 48 hrs relative to control; type: functional; conditions: U-251, 48 h, read-out: Activity
C6 [16] = test: Antiproliferative activity against rat C6 cells assessed as cell proliferation at 2 uM measured after 48 hrs relative to control; type: functional; conditions: C6, 48 h, read-out: Activity
C6 [17] = test: Antiproliferative activity against rat C6 cells assessed as cell proliferation at 4 uM measured after 48 hrs relative to control; type: functional; conditions: C6, 48 h, read-out: Activity
C6 [18] = test: Antiproliferative activity against rat C6 cells assessed as cell proliferation at 6 uM measured after 48 hrs relative to control; type: functional; conditions: C6, 48 h, read-out: Activity
C6 [19] = test: Antiproliferative activity against rat C6 cells assessed as cell proliferation at 8 uM measured after 48 hrs relative to control; type: functional; conditions: C6, 48 h, read-out: Activity
C6 [20] = test: Antiproliferative activity against rat C6 cells assessed as cell proliferation at 10 uM measured after 48 hrs relative to control; type: functional; conditions: C6, 48 h, read-out: Activity
U-251 [21] = test: Antiproliferative activity against human U251 cells assessed as reduction in cAMP level at 4 to 10 uM measured after 48 hrs by radio-immunoassay; type: functional, cell-based
U-251 [22] = test: Antiproliferative activity against human U251 cells assessed as reduction in cAMP level at 6 uM measured after 48 hrs by radio-immunoassay relative to control; type: functional; set-up: scale not given: the % may be the effect or the level left
U-251 [23] = test: Cell cycle arrest in human U251 cells assessed as accumulation at G0/G1 phase at 4 uM measured after 48 hrs by propidium iodide staining based FACScan flow cytometry (reference value: 29.21 %); type: functional
U-251 [24] = test: Cell cycle arrest in human U251 cells assessed as accumulation at G0/G1 phase at 6 uM measured after 48 hrs by propidium iodide staining based FACScan flow cytometry (reference value: 29.21 %); type: functional
U-251 [25] = test: Cell cycle arrest in human U251 cells assessed as accumulation at G0/G1 phase at 8 uM measured after 48 hrs by propidium iodide staining based FACScan flow cytometry (reference value: 29.21 %); type: functional
U-251 [26] = test: Cell cycle arrest in human U251 cells assessed as accumulation at G0/G1 phase at 10 uM measured after 48 hrs by propidium iodide staining based FACScan flow cytometry (reference value: 29.21 %); type: functional
U-251 [27] = test: Cell cycle arrest in human U251 cells assessed as accumulation at G2/M phase at 6 uM measured after 48 hrs by propidium iodide staining based FACScan flow cytometry (reference value: 52.67 %); type: functional
U-251 [28] = test: Cell cycle arrest in human U251 cells assessed as accumulation at G2/M phase at 8 uM measured after 48 hrs by propidium iodide staining based FACScan flow cytometry (reference value: 52.67 %); type: functional
U-251 [29] = test: Cell cycle arrest in human U251 cells assessed as accumulation at G2/M phase at 10 uM measured after 48 hrs by propidium iodide staining based FACScan flow cytometry (reference value: 52.67 %); type: functional
U-251 [30] = test: Cell cycle arrest in human U251 cells assessed as accumulation at S phase at 6 uM measured after 48 hrs by propidium iodide staining based FACScan flow cytometry (reference value: 16.34 %); type: functional
U-251 [31] = test: Cell cycle arrest in human U251 cells assessed as accumulation at S phase at 8 uM measured after 48 hrs by propidium iodide staining based FACScan flow cytometry (reference value: 16.34 %); type: functional
U-251 [32] = test: Cell cycle arrest in human U251 cells assessed as accumulation at S phase at 10 uM measured after 48 hrs by propidium iodide staining based FACScan flow cytometry (reference value: 16.34 %); type: functional
U-251 [33] = test: Induction of morphological changes in human U251 cells assessed as membrane blebbing at 6 to 10 uM measured after 48 hrs by transmission electron microscopy; type: functional, cell-based
U-251 [34] = test: Induction of morphological changes in human U251 cells assessed as chromatin condensation at 6 to 10 uM measured after 48 hrs by transmission electron microscopy; type: functional, cell-based
U-251 [35] = test: Induction of morphological changes in human U251 cells assessed as appearance of foamy cytoplasmic material at 6 to 10 uM measured after 48 hrs by transmission electron microscopy; type: functional, cell-based
U-251 [36] = test: Induction of morphological changes in human U251 cells assessed as appearance of autophagic vacuoles at 6 to 10 uM measured after 48 hrs by transmission electron microscopy; type: functional, cell-based
U-251 [37] = test: Induction of morphological changes in human U251 cells assessed as movement of chromatin granules towards periphery of nucleoplasm at 10 uM measured after 48 hrs by transmission electron microscopy; type: functional, cell-based
U-251 [38] = test: Induction of autophagy in human U251 cells assessed as morphological changes at 10 uM measured after 48 hrs by transmission electron microscopy; type: functional, cell-based
U-251 [39] = test: Antiproliferative activity against human U251 cells assessed as reduction in cAMP level at 2 uM measured after 48 hrs by radio-immunoassay; type: functional, cell-based
U-251 [40] = test: Induction of morphological changes in human U251 cells assessed as appearance of lipid droplets at 10 uM measured after 48 hrs by transmission electron microscopy; type: functional, cell-based

In the case of `C[C@H]1[C@H](C)CC[C@]2(C(=O)O)CC[C@]3(C)C(=CC[C@@H]4[C@@]5(C)C/C(=C(\c6ccc(O)cc6O)C(c6ccccc6O)c6c[nH]c7ccccc67)C(=O)C(C)(C)[C@@H]5CC[C@]43C)[C@H]12` (stereo not given in full), the Activity (U-251 [1]) is reported as “inactive”, the Activity (U-251 [2]) is reported as 69.32% and the Activity (U-251 [3]) is reported as 39.78%. The Activity (U-251 [4]) was 21.65%, the Activity (U-251 [5]) was 8.56% and the Activity (U-251 [6]) was “Active”. For the same molecule, the Activity (U-251 [7]) was “Active”, the Activity (U-251 [8]) was “Active” and the Activity (U-251 [9]) was “Dose-dependent effect”. The Activity (C6 [10]) was “Dose-dependent effect”, the growth at 2 µM (U-251 [11]) was 99% and the growth at 4 µM (U-251 [12]) was 83%. For the same molecule, the growth at 6 µM (U-251 [13]) was 61%, the growth at 8 µM (U-251 [14]) was 39% and the growth at 10 µM (U-251 [15]) was 17%. It also gave a growth at 2 µM (C6 [16]) of 99%, a growth at 4 µM (C6 [17]) of 86% and a growth at 6 µM (C6 [18]) of 68%. The growth at 8 µM (C6 [19]) was 43%, the growth at 10 µM (C6 [20]) was 21% and the Activity (U-251 [21]) was “Active”. The Activity (U-251 [22]) was 50%, the Activity (U-251 [23]) was 32.44% and the Activity (U-251 [24]) was 36.16%. For the same molecule, the Activity (U-251 [25]) was 41.78%, the Activity (U-251 [26]) was 53.76% and the Activity (U-251 [27]) was 49.26%. For the same molecule, the Activity (U-251 [28]) was 42.45%, the Activity (U-251 [29]) was 35.23% and the Activity (U-251 [30]) was 12.51%. The Activity (U-251 [31]) was 11.78%, the Activity (U-251 [32]) was 9.65% and the Activity (U-251 [33]) was “Active”. The Activity (U-251 [34]) was “Active”, the Activity (U-251 [35]) was “Active” and the Activity (U-251 [36]) was “Active”. The Activity (U-251 [37]) was “Active”, the Activity (U-251 [38]) was “Active” and the Activity (U-251 [39]) was “inactive”. The Activity (U-251 [40]) was “Active”.
